Among the data in PubChem BioAssay (NCI) are TGI and GI50 values, retold here.

Some test systems named below: ACHN renal; CCRF-CEM leukemia; EKVX NSCLC; NCI-H522 lung; NCI/ADR-RES ovarian; OVCAR-3 ovarian; OVCAR-4 ovarian; SF-268 CNS; SW-620 colon; UACC-257 melanoma; UACC-62 melanoma; UO-31 renal; HOP-18 NSCLC; HOP-92 NSCLC; RPMI-8226 leukemia; SF-539 CNS; SNB-78 CNS.
Assay in all cases: NCI tumour cell line growth inhibition, 48 h

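48-hour exposure; five concentrations; linearly interpolated endpoints. GI50 is the concentration that inhibits growth by half. At the TGI there is no net growth.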

For `O=C(O)Cc1ccc(N2N=C(c3ccccc3)CC2=O)cc1`, the TGI in the assay on ACHN renal, in the assay on CCRF-CEM leukemia, in the assay on EKVX NSCLC, in the assay on NCI-H522 lung, in the assay on NCI/ADR-RES ovarian and in the assay with OVCAR-3 ovarian was > 100 µM throughout. Also, the TGI in the assay with OVCAR-4 ovarian, with SF-268 CNS, with SW-620 colon, in the assay on UACC-257 melanoma, in the assay on UACC-62 melanoma and in the assay with UO-31 renal was > 100 µM throughout.
As for `[Cl-].[Rh+3].c1ccc(-c2ccnc3c2ccc2c(-c4ccccc4)ccnc23)cc1.c1ccc(-c2ccnc3c2ccc2c(-c4ccccc4)ccnc23)cc1.c1ccc(-c2ccnc3c2ccc2c(-c4ccccc4)ccnc23)cc1`, the TGI in the assay on CCRF-CEM leukemia was > 100 µM; with EKVX NSCLC, > 91.7 µM; in the assay on HOP-18 NSCLC, > 87.4 µM; in the assay with HOP-92 NSCLC it was > 77.9 µM; with NCI-H522 lung, > 85.1 µM; in the assay with NCI/ADR-RES ovarian it was > 100 µM. Further, the TGI with OVCAR-3 ovarian is > 100 µM; in the assay on OVCAR-4 ovarian it was > 100 µM; with RPMI-8226 leukemia, > 100 µM; with SF-268 CNS it was > 100 µM; in the assay with SF-539 CNS, > 76 µM; in the assay with SNB-78 CNS, > 100 µM. Further, the TGI in the assay on SW-620 colon, in the assay on UACC-257 melanoma, in the assay with UACC-62 melanoma and in the assay with UO-31 renal was > 100 µM each time. In addition, the GI50 is 19 µM with HOP-92 NSCLC, 73.2 µM in the assay on NCI/ADR-RES ovarian and 29.2 µM with RPMI-8226 leukemia.
Turning to `CN(C)CCNCc1c2ccccc2c(CNCCN(C)C)c2ccccc12`, the TGI with CCRF-CEM leukemia is 88.8 µM; with EKVX NSCLC, > 100 µM; with HOP-18 NSCLC, > 100 µM; in the assay on HOP-92 NSCLC, 47.3 µM; in the assay with NCI-H522 lung, > 100 µM; in the assay on NCI/ADR-RES ovarian, > 100 µM. The TGI was > 100 µM with OVCAR-3 ovarian; 72 µM in the assay on OVCAR-4 ovarian; > 100 µM with RPMI-8226 leukemia; > 90.5 µM in the assay with SF-268 CNS; > 73.6 µM in the assay with SF-539 CNS; 98.4 µM in the assay with SNB-78 CNS. The TGI was > 73.6 µM with SW-620 colon, 32.5 µM with UACC-257 melanoma, > 61.6 µM in the assay with UACC-62 melanoma and > 100 µM in the assay on UO-31 renal.
As for `C/C=C(/C)C(=O)O[C@@H]1c2c(C)coc2C[C@H]2CC[C@H](O)[C@H](C)[C@]21C`, the TGI in the assay with ACHN renal was > 100 µM; with CCRF-CEM leukemia, > 100 µM; with EKVX NSCLC, > 100 µM; in the assay on HOP-92 NSCLC, > 100 µM; with NCI-H522 lung, > 100 µM; in the assay on NCI/ADR-RES ovarian, 55.9 µM. Also, the TGI was 70.6 µM in the assay on OVCAR-3 ovarian; > 100 µM in the assay with OVCAR-4 ovarian; > 100 µM in the assay with RPMI-8226 leukemia; > 100 µM with SF-268 CNS; 87 µM in the assay on SF-539 CNS; > 100 µM in the assay with SW-620 colon. Moreover, the TGI with UACC-257 melanoma, with UACC-62 melanoma and in the assay on UO-31 renal was > 100 µM throughout.
On to `COc1ccc(/C(Cl)=C(\C=O)c2ccc(F)cc2)cc1`, for which the TGI was 35.6 µM with ACHN renal; 18.7 µM with CCRF-CEM leukemia; > 100 µM in the assay with EKVX NSCLC; 51.7 µM with HOP-18 NSCLC; 19.1 µM in the assay on HOP-92 NSCLC; 24.8 µM in the assay on NCI-H522 lung. The TGI was 58 µM in the assay on OVCAR-3 ovarian; 44.6 µM with RPMI-8226 leukemia; 89.3 µM in the assay on SF-268 CNS; 50.2 µM with SF-539 CNS; 53.1 µM in the assay with SNB-78 CNS; > 100 µM in the assay with SW-620 colon. In addition, the TGI was 56 µM in the assay on UACC-62 melanoma and 42.2 µM in the assay with UO-31 renal.
With `C=CC1OC(CCCOC(=O)C(C)(C)C)O[C@@H]1CC` (some centres not stated), the TGI in the assay with ACHN renal, in the assay on CCRF-CEM leukemia, in the assay on EKVX NSCLC, with HOP-92 NSCLC, in the assay with NCI-H522 lung and in the assay on NCI/ADR-RES ovarian was > 100 µM throughout. Also, the TGI in the assay with OVCAR-3 ovarian, with OVCAR-4 ovarian, in the assay on RPMI-8226 leukemia, in the assay with SF-268 CNS, in the assay on SF-539 CNS and with SW-620 colon was > 100 µM throughout. Further, the TGI in the assay with UACC-257 melanoma, in the assay on UACC-62 melanoma and in the assay with UO-31 renal was > 100 µM each time.
As for `C=C(C)C1Cc2c(cc(O)c3c(=O)c4ccccc4n(C)c23)O1` (configuration not stated), the TGI is > 100 µM in the assay on ACHN renal; > 100 µM in the assay with CCRF-CEM leukemia; > 100 µM in the assay on HOP-18 NSCLC; 54.5 µM in the assay on HOP-92 NSCLC; 66.1 µM in the assay with NCI-H522 lung; 26.7 µM in the assay with OVCAR-4 ovarian. Also, the TGI is > 100 µM in the assay on RPMI-8226 leukemia; 73 µM in the assay on SF-268 CNS; > 100 µM in the assay with SNB-78 CNS; > 100 µM in the assay on SW-620 colon; > 100 µM with UACC-257 melanoma.
`O=[N+]([O-])c1ccc(/C=C/c2ccc(N=Nc3ccc(/C=C/c4ccc([N+](=O)[O-])cc4S(=O)(=O)O)c(S(=O)(=O)O)c3)cc2S(=O)(=O)O)c(S(=O)(=O)O)c1`: the TGI in the assay on CCRF-CEM leukemia was > 100 µM; with EKVX NSCLC, > 100 µM; in the assay on HOP-18 NSCLC, > 100 µM; in the assay on HOP-92 NSCLC, > 94.3 µM; in the assay with NCI-H522 lung, > 100 µM; with NCI/ADR-RES ovarian, > 100 µM. Also, the TGI with OVCAR-3 ovarian, with OVCAR-4 ovarian, with SF-268 CNS, with SF-539 CNS, with SNB-78 CNS and in the assay with SW-620 colon was > 100 µM in each case. Also, the TGI in the assay with UACC-257 melanoma, with UACC-62 melanoma and in the assay on UO-31 renal was > 100 µM each time.
In the case of `CC(C)(C)OC(=O)C1=C(C(=O)OC(C)(C)C)SC2(S1)C(C(=O)OC(C)(C)C)=C(C(=O)OC(C)(C)C)Sc1c2ssc1=O`, the TGI in the assay on ACHN renal, with CCRF-CEM leukemia, in the assay with EKVX NSCLC, in the assay on HOP-92 NSCLC, in the assay with NCI-H522 lung and in the assay on NCI/ADR-RES ovarian was > 100 µM in each case. Further, the TGI in the assay on OVCAR-3 ovarian, in the assay with OVCAR-4 ovarian, in the assay with RPMI-8226 leukemia, in the assay on SF-268 CNS, in the assay on SW-620 colon and in the assay with UACC-257 melanoma was > 100 µM throughout. For the same compound, the TGI in the assay with UACC-62 melanoma and in the assay on UO-31 renal was > 100 µM throughout.
Regarding `COC(=O)[C@@H]1c2cc3c(c(O)c2[C@@H](OC)C[C@@]1(C)O)C(=O)c1c(O)cc2c(c1C3=O)OC1O[C@@]2(C)[C@H](O)[C@@H](N(C)C)[C@@H]1O`, the TGI was > 150 µM with CCRF-CEM leukemia; 1.33 µM with EKVX NSCLC; 1.34 µM in the assay with HOP-18 NSCLC; 0.14 µM with HOP-92 NSCLC; 1.9 µM in the assay with NCI-H522 lung; 4.22 µM in the assay with NCI/ADR-RES ovarian. For the same compound, the TGI in the assay with OVCAR-3 ovarian was 1.69 µM; in the assay with OVCAR-4 ovarian it was 1.76 µM; in the assay on RPMI-8226 leukemia, > 150 µM; in the assay with SF-268 CNS it was 3.02 µM; in the assay with SF-539 CNS, 7.48 µM; in the assay on SNB-78 CNS, 4.54 µM. In addition, the TGI was 2.21 µM in the assay on SW-620 colon, 1.21 µM in the assay on UACC-257 melanoma, 0.534 µM in the assay with UACC-62 melanoma and 3.12 µM in the assay with UO-31 renal.
